The test relates to eIF4A-dependent translation in HEK 293 cells. In words: In vivo translation assay with bicistronic dual-luciferase reporters. It is filed as cell-based, human. Particulars: HEK293, Dual-Glo. From the text: FIG. 4A: Chemical structure of resveratrol. FIG. 4B: Yeast cell lysates and human HeLa cell lysates were each treated with resveratrol in vitro followed by thermolysin digestion and silver staining. Protected bands of similar size were detected. FIG. 4C: Resveratrol protects TAP-tagged eIF4A, but not an unrelated Htb2, protein from proteolysis. Arrow: protein protected from subtilisin proteolysis (H. sapiens (SEQ ID NO:1), M. musculus (SEQ ID NO:2), X. laevis (SEQ ID NO:3), D. melanogaster (SEQ ID NO:4), C. elegans (SEQ ID NO:5), S. purpuratus (SEQ ID NO:6), C. reinhardtii (SEQ ID NO:7), A. thaliana (SEQ ID NO:8), H. andersenii (SEQ ID NO:9), S. cerevisiae (SEQ ID NO:10)). FIG. 4D: Resveratrol inhibits eIF4A-dependent translation in HEK 293 cells as assayed by bicistronic translation reporters. […] FIG. 4E: eIF4A is required for longevity in resveratrol-treated animals. Resveratrol (50 μM) lengthens the lifespan of wild-type N2 worms fed control (gfp) RNAi (green), but not worms fed eIF4A (inf-1) RNAi (red) or daf-16 RNAi (blue). gfp(RNAi), mVeh=19 (n=74), mRSV=20 (n=78), P=0.0006***; inf-1(RNAi), mVeh=26 (n=76), mRSV=24 (n=79), P=0.4687; daf-16(RNAi), mVeh=17 (n=78), mRSV=17 (n=76), P=0.3305. m, mean lifespan (days of adulthood); n, number of animals tested.
The molecular mechanisms underlying resveratrol's lifespan effect have been controversial (Howitz et al. (2003) Nature 425: 191-196; Kaeberlein et al. (2005) J Biol Chem 280: 17038-17045), and whether Sir2 serves as a direct target for resveratrol is an interesting problem that is being pursued. […]
HEK293 cells in DMEM+10% FBS were pre-treated with 50 μM resveratrol for 1 hr, and transfected with bicistronic translation reporter plasmids using LipoD293 DNA in vitro transfection reagent (SignaGen). […] Reporter activity was measured 33 hr post-transfection using the Dual-Glo luciferase assay system (Promega) with an Analyst HT plate reader (Molecular Devices). […]

Take `Oc1ccc(C=Cc2cc(O)cc(O)c2)cc1` [resveratrol]: the “translation from the eIF4A-independent HCV IRES” value was “unaffected”. Besides, under “requires eIF4A”, the “EMCV IRES-mediated translation” value was “inhibited in a dose-dependent manner” and the cap-dependent translation entry is “inhibited in a dose-dependent manner”.

(Values after US8703438B2, “Ligand binding stabilization method for drug target identification” (The Regents of the University of California, priority 2008, dated 2014).)
